Source: article PMC11259170, “Small-molecule probe for IBD risk variant GPR65 I231L alters cytokine signaling networks through positive allosteric modulation” (Science Advances, 2024)
Read-outs that look alike come from different tables or passages of the source.

Legend:
[1] = Solubility remark in the Comments column of the SAR table; assay type: physicochemical
From the text: Supplement sciadv.adn2339_data_s1_to_s4.zip/sciadv.adn2339_data_s2.xlsx, sheet "SAR cAMP Assay"

[2] = tested on: GFP-expressing HeLa cells; test: cAMP detection in HeLa expression cell line, GFP control; assay type: cell-based, human; conditions: Homo sapiens, HeLa, 2nd GFP column pair, NA = no activity
How it was run: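 TR-FRET cAMP read-out (Lance Ultra; ex 337 nm, em 620 and 665 nm) after 1 h detection in the dark, following a 30 min RT stimulation of 1500 cells per well in pH 7.2 stimulation buffer with compound supplied as 10 mM DMSO stock. Cells: lentivirally transduced HeLa lines carrying V5-tagged GPCR or GFP, kept under 3 μg/ml puromycin.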

hGPR65 [3] = biological target: T1, hGPR65 (Homo sapiens, UniProt Q8IYL9); test: cAMP detection in HeLa expression cell line, hGPR65; assay type: cell-based; conditions: for Emax: HeLa, relative to 100uM forskolin (100%) and DMSO (0%), read-out: hGPR Max Activity %
T1 construct: expressed in transfected cells; host or cells: HeLa (ATCC CCL-2), lentiviral transduction, pLX317
How it was run: (§1)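 Lentivirally transduced HeLa, V5-tagged GPCR, puromycin 3 μg/ml. 1500 cells/well, stimulation buffer pH 7.2, compound (10 mM DMSO stock), 30 min RT. Lyse, detection reagents 1 h dark RT. TR-FRET cAMP kit, ex 337, em 620/665.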

mGPR65 = biological target: T2, mGPR65 (Mus musculus, UniProt Q61038); test: cAMP detection in HeLa expression cell line, mGPR65; assay type: cell-based; conditions: for Emax: HeLa, relative to 100uM forskolin (100%) and DMSO (0%), read-out: mGPR Max Activity %
T2 construct: expressed in transfected cells; host or cells: HeLa (ATCC CCL-2), lentiviral transduction, pLX317
How it was run: as §1

Lipophilicity (logD) = assay type: physicochemical; conditions: pH 7.4; pH7.4; read-out: LogD (pH7.4)
[4] = Solubility in phosphate buffer; assay type: physicochemical; conditions: read-out: Solubility
hGPR65 [5] = biological target: T1, hGPR65; test: cAMP detection (Lance Ultra), GPR65 KO HeLa reconstituted with hGPR65; 21K screen dose confirmation; assay type: cell-based; conditions: primary hit validation
Protocol: (§2) The Lance Ultra cAMP Kit (PerkinElmer, TRF0264) was used for cAMP detection, and included the following reagents: ULight anti-cAMP antibody, Eu-cAMP tracer, 7.5% BSA Stabilizer solution, and cAMP detection buffer. Stimulation buffer was prepared as described by the kit manufacturer as follows: Hanks buffered saline solution (HBSS, Life Technologies, 14025-126) containing 0.5 mM IBMX (3-isobutyl-1-methylxanthine, Sigma-Aldrich, I7018) and buffered with 1 M Hepes (15630-080). Stimulation buffer was then adjusted to pH 7.1 using 12 N HCl. HeLa cells were lifted using Versene and then suspended at 2.5 × 10^5 cells/ml in stimulation buffer. Cells were then plated at 20 μl per well (5000 cells per well) in white, opaque OptiPlate 384-well MicroPlates (PerkinElmer, 6007299) using a Thermo Fisher Scientific Combi liquid dispenser. Compounds, stored at 5 mM in DMSO for the primary screen, or in a range of concentrations from 39 μM to 20 mM for dose curves, were transferred by the CyBio CyBi-Well Vario pin transfer tool with 100-nl pins (V&P FP1NS50H, 50-nl slot, 0.457-mm diameter, hydrophobic coated), into each assay well, 100 nl per well for a final assay concentration of 25 μM for the primary screen, or 195 nM to 100 μM for dose curves. Assay plates were then incubated at RT for 30 min. Eu-cAMP tracer was diluted 1:33 into detection buffer and the final solution then distributed into assay wells, 5 μl per well. ULight anti-cAMP antibody was diluted 1:100 into detection buffer, then distributed into assay wells, also 5 μl per well. Assay plates were then incubated at RT in the dark for 1 hour. Eu-cAMP tracer and Förster resonance energy transfer (FRET) emissions were then read using a PerkinElmer EnVision Multimode plate reader (ENVISION21040010), exciting each well at 320 nm [UV2 (TRF) 320 filter] and reading emissions at 615 nm (Europium 615 filter) and 665 nm (APC665 filter). Data analysis was performed using Genedata Screener and GraphPad Prism.
(§3) HeLa KO cell lines were generated using the px330 plasmid CRISPR system as previously described ([18]). Briefly, HeLa cells were transfected with a Cas9 vector containing a gene-specific single-guide RNA to target the GPR65 coding exon. Forty-eight to 72 hours after transfection, single clones were obtained through limiting dilution and then sequenced to validate the KO. Reconstituted cell lines were produced by transducing KO cells with empty lentivirus or lentivirus containing hGPR65 or mGPR65. After 48 hours, cells were treated with puromycin (3 μg/ml; InvivoGen, ant-pr-1) and resistant cells were used in experiments.

human GPR4 (hGPR4) = biological target: T3, human GPR4 (hGPR4) (Homo sapiens, UniProt P46093); test: cAMP detection in HeLa expression cell line, hGPR4; assay type: cell-based; conditions: highest concentration tested
T3 construct: expressed in transfected cells; host or cells: HeLa (ATCC CCL-2), lentiviral transduction, pLX317
Protocol: HeLa stable expression cell lines were produced by lentiviral transduction. Briefly, lentiviral plasmids for each GPCR with a C-terminal V5 Tag ([…]) were made in a pLX317 backbone using competent Escherichia coli (New England Biolabs, C3050H). Lenti-X 293 T (Takara, 632810) cells were transfected with the lentiviral plasmids to produce virus. Low-passage HeLa cells (American Type Culture Collection, CCL-2) were then transduced with lentivirus. After 48 hours, HeLa cells were cultured under selection with puromycin (3 μg/ml) and allowed to recover and expand before storing stocks in liquid nitrogen.
cAMP was measured in cells using the Lance Ultra cAMP Kit. HeLa cells were cultured under puromycin (3 μg/ml) selection. One day before the experiment, cells were seeded in T75 flasks and allowed to adhere overnight. On the day of the experiment, cells were washed twice with Dulbecco’s PBS and lifted using prewarmed 1× versene solution (Gibco, 15040066). Cells were counted in HBSS (Gibco, 14025092) and then resuspended in stimulation buffer prepared according to the manufacturer’s instructions and adjusted to pH 7.2 using 1 M sodium hydroxide. Cells were added to the plate at a density of 1500 cells per well in white opaque 384-well assay ready microplates containing 100 nl of 10 mM compound in DMSO. Cells were stimulated for 30 min at RT, then lysed and incubated with detection reagents for 1 hour in the dark at RT. Plates were read on BMG Labtech PHERAstar FSX (excitation, 337 nm; emission, 620 and 665 nm). Data analysis was performed using GraphPad Prism.

human PBMCs = test: cAMP detection in human PBMCs; assay type: cell-based; conditions: 0 to 50 μM, 30 min, pH 7.2
Protocol: Human blood samples were collected from healthy donors at the Blood Donor Center at Massachusetts General Hospital in compliance with all relevant ethical regulations and according to protocol 2018P001504 approved by the Mass General Brigham Institutional Review Board. Donors provided informed written consent. Human PBMCs were isolated by density gradient separation using Ficoll-Paque PLUS (VWR- GE Life Sciences, catalog no. 17144002), as previously described ([54]). Isolated PBMCs were incubated overnight in DMEM (10% FBS, 0.2% sodium bicarbonate, 1X Glutamax) at 37°C, 5% CO2. Human monocytes were isolated from an unpurified Buffy Coat using RosetteSep human monocyte enrichment cocktail (StemCell Technologies, 15068) and frozen same day in FBS with 10% DMSO.
cAMP was measured in cells using the Lance Ultra cAMP Kit. Compound dose curves were prepared in an assay buffer, which was made according to the manufacturer’s guidelines using DMEM instead of HBSS. Assay buffer was adjusted to desired pH using 1 M HCl or NaOH. PBMCs were collected, centrifuged, and resuspended in assay buffer. Dose curves and cells were added to a white opaque OptiPlate (PerkinElmer, 6007290) at a density of 20,000 cells per well. […] Eu-cAMP tracer and FRET emissions were read using a PerkinElmer EnVision Multimode plate reader (ENVISION21040010). […]

hGPR65 [6] = biological target: T1, hGPR65; test: cAMP detection (Lance Ultra), GPR65 KO HeLa reconstituted with hGPR65; 21K screen dose confirmation; assay type: cell-based
[7] = tested on: GPR65 KO HeLa cells + pLX empty vector; test: cAMP detection, GPR65 KO HeLa + empty pLX vector (null control); assay type: cell-based, human
Protocol: as §2, §3

[8] = 1st hGPR column pair, NA = no activity
[9] = 2nd hGPR column pair, NA = no activity
[10] = 2nd mGPR column pair, NA = no activity

T2 sequence (Q61038 whole entry): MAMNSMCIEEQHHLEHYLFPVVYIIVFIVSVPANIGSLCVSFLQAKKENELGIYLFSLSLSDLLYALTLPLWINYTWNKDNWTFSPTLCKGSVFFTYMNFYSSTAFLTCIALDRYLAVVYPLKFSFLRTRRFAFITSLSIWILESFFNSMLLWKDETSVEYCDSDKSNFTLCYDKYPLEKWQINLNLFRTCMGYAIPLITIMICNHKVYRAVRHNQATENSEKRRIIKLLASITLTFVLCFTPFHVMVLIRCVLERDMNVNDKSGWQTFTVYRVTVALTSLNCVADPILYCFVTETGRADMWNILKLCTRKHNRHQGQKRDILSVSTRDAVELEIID
T1 sequence (Q8IYL9 whole entry): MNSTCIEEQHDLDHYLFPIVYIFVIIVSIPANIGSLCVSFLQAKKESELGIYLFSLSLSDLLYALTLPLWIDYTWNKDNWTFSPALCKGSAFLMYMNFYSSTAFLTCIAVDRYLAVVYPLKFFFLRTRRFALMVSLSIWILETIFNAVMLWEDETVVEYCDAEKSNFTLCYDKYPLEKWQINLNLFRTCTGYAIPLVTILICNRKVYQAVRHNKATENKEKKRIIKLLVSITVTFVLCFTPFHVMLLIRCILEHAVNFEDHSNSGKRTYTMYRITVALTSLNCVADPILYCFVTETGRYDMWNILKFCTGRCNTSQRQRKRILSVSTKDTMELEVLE
T3 sequence (P46093 whole entry): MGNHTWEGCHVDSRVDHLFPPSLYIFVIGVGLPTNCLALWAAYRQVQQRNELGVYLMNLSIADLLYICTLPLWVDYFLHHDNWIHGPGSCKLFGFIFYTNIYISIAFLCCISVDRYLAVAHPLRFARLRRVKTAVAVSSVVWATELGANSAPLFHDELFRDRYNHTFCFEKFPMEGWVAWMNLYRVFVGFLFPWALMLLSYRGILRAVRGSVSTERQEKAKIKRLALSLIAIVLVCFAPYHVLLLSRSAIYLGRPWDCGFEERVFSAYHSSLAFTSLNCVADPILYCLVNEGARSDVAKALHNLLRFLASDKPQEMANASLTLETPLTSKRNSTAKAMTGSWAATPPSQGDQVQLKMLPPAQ

SMILES: Cc1ccc(NC(=O)c2cnn3c(O)cc(-c4ccc(-c5ccccc5C(C)C)cc4)nc23)cc1 [BRD4665]
- Comments (solubility) [1]: Poor solubility.
- EC50 [2]: 26400 nM
- Emax ([2]; relative to 100uM forskolin (100%) and DMSO (0%), read-out: GFP Max Activity %): 12%
- EC50 (hGPR65 [3]; 1st hGPR column pair, NA = no activity, read-out: hGPR EC50): 0.227 µM
- EC50 (hGPR65 [3]; 2nd hGPR column pair, NA = no activity, read-out: hGPR EC50): 0.152 µM
- Emax (hGPR65 [3]; [8]): 76.3%
- Emax (hGPR65 [3]; [9]): 79.6%
- EC50 (mGPR65; 1st mGPR column pair, NA = no activity, read-out: mGPR EC50): 0.787 µM
- EC50 (mGPR65; 2nd mGPR column pair, NA = no activity, read-out: mGPR EC50): 0.627 µM
- Emax (mGPR65; [10]): 33.2%
- Emax (mGPR65; NA = no activity): 34.9%

SMILES: COCc1ccc(-c2cc(O)n3ncc(C(=O)Nc4ccc(C)cc4)c3n2)cc1 [BRD2813, COCc1ccc(cc1)-c1cc(O)n2ncc(C(=O)Nc3ccc(C)cc3)c2n1]
- logD (Lipophilicity (logD)): > 4.65
- solubility [4]: < 1.56 µM
- cAMP activity in hGPR65-expressing cells (hGPR65 [5]): dose-dependent activity
- cAMP relative to DMSO in the hGPR4 cells (human GPR4 (hGPR4)): decrease in cAMP
- Emax (hGPR65 [3]; [8]): 78.8%
- Emax (hGPR65 [3]; [9]): 79.2%
- EC50 (hGPR65 [3]; hGPR EC50 (uM), NA = no activity): 0.866 µM
- EC50 (hGPR65 [3]; hGPR EC50 (uM), pH 7.2, 30 min): 1.2 µM
- EC50 (hGPR65 [3]; hGPR EC50, NA = no activity): 0.993 µM
- EC50 (hGPR65 [3]; hGPR EC50, pH 7.2, 30 min): 0.724 µM
- Emax (mGPR65; [10]): 39.6%
- Emax (mGPR65; NA = no activity): 35.8%
- EC50 (mGPR65; mGPR EC50 (uM), first pair of columns, pH 7.2, 30 min): 0.942 µM
- EC50 (mGPR65; mGPR EC50 (uM), second pair of columns, pH 7.2, 30 min): 0.406 µM
- EC50 (mGPR65; mGPR EC50 (uM), NA = no activity): 0.693 µM
- cAMP production in human PBMCs, compared (human PBMCs): outperformed BTB09089
- pH of greatest compound effect (hGPR65 [6]; 0-50 μM, pH curves): between pH 7.1 and 7.3
- cAMP response, BRD2813 compared with BTB09089 (hGPR65 [6]; 0 to 50 μM, pH 7.2): greater cAMP response
- shift in the pH response curve of GPR65 (hGPR65 [6]; increasing concentrations, 0 to 50 μM): leftward shift
- EC50 ([7]; Homo sapiens, 0.5 h, HeLa GPR65 KO + pLX, pH 7.1, 30 min, normalized to DMSO and 100 μM forskolin): > 100000 nM
- cAMP production in control cells ([7]; primary hit validation): without inducing cAMP production
